Results on four compounds are retold here after ChEMBL document CHEMBL2440011, “Screening for inhibitors of the hepatitis C virus internal ribosome entry site RNA” (Bioorg Med Chem, 2013).

A short description of test [1]: Binding affinity to 5'-terminal cyanine dye-labeled IRES subdomain 2a RNA (unknown origin) by FRET assay in presence of Mg2+.
A short description of test [2]: Binding affinity to 5'-terminal cyanine dye-labeled IRES subdomain 2a RNA (unknown origin) at 200 uM by FRET assay.
Test [3] is described as follows: Binding affinity to 5'-terminal cyanine dye-labeled IRES subdomain 2a RNA (unknown origin) at 200 uM by FRET assay in presence of tRNA.
In test [4] the test system is Internal ribosome entry site (IRES). As to the kind of experiment: Binding affinity to HCV IRES RNA assessed as inhibition of RNA translation at […] by luciferase reporter gene assay. To be noted: Hepacivirus hominis. A general note: A reporter such as luciferase makes a cellular process visible.
Test [5] in a line: Binding affinity to cap RNA (unknown origin) assessed as inhibition of cap-dependent firefly luciferase reporter translation.

Molecules are shown by their SMILES. Activity calls are given as the source filed them. The calls are words filed in the database; no cut-off is given here.

As for `CN(C)CC1COc2ccc3nc4n(c3c2C1)CC(CN(C)C)CN4` (stereo not drawn), the result in test [1] was Active.
As for `CN(C)CCCNc1nc2cc(N)ccc2o1`, the result in test [2] was Active.
Regarding `CN(C)CCCn1c(N)nc2ccc3c(c21)CC(CN(C)C)CO3` (stereo not drawn), the Activity result in test [1] was “Dose-dependent effect”.
What is called inhibition is how much of the control response was suppressed. Consider `CN(C)CCCNc1nc2ccc(N)cc2o1`, for which the outcome in test [3] and in test [2] was Active. Besides, the inhibition in test [4] was 30%. For the same compound, in test [5], the inhibition result is “inactive”. Besides, in test [1], the Activity result is “Dose-dependent effect”.
